According to patent US20060153906A1, “Pharmaceutical product for endonasal administration for treating central nervous system disease and disorders” (priority 2002, published 2006):
Where two headings read alike, the source gives them in different places.

How the values were obtained:
[1] = tested on: rear paw of the rats; test: Randall-Selitto pain test, critical pressure (WKD) on the rear paw; type: in vivo, rat
Description: The anti-nociceptive and/or analgesic effect of promedol (trimeperidine) was investigated as a result of the endonasal administration of the combination H2O2+promedol. The experiments were conducted with (raceless) sexually mature white male rats. In a pain test, the value of the critical pressure (WKD) on the rear paw of the rats was measured. The controlled pressure on the paw was generated with an analgesimeter from the company Ugo Basile in form of the Randall-Selitto test.
Comparative results in relation to the composition of the invention include, on one hand, the intraperitoneal administration of promedol without the addition of oxygen anion radicals and, on the other hand, the intraperitoneal administration of promedol with addition of oxygen anion radicals by, on one hand, inhalation with the inhalation device described in DE 41 12 459 A1 and, on the other hand, by separate endonasal administration of a liquid hydrogen peroxide solution with a concentration of 10^−5 mole/l.
The administration according to the invention consisted of a mixture of xanthine-oxidase/xanthine and promedol in doses of 5, 2, 1, and 0.1 mg/kg bodyweight of the animals.

[2] = tested on: rats
Source text: It should be emphasized that dopamine is not capable of penetrating the blood-brain barrier when administered conventionally.

[3] = tested on: white male rats; test: Food motivation in partially food-deprived rats, endonasal administration; type: in vivo, rat
Source text: The experiments where carried out with white male rats. The animals of the control group 1 (n=13) received distilled water, the animals of the control group 2 (n=7) received a glucose solution, and the animals of the experimental group (n=9) received the composition H2O2+glucose. The duration of the observation was 17 days. During the first 11 days, the animals where controllably partially deprived of food (20 g dry mixed feed per animal). During the first week of the experiment, the initial motivation level for food was evaluated in the absence of the investigated preparation. The following parameters were investigated:
Latent period (LP) between the approach to the food and presentation of the food in seconds;
Time for consuming the food, in seconds (Tfut.);
Number of interruptions during food uptake (Ubr.)
After the second week, without changing the feed conditions, the preparation was introduced twice daily in a dose of 20 μl per animal, and all parameters where recorded. After the second week, the animals where fed ad libidum. No changes were made in the administration of the preparation and recordation of all parameters.
The experiments where conducted as in Example 1.

[4] = tested on: white mice; test: Soporific effect (sleep duration) after endonasal administration; type: in vivo, mouse; conditions: 60 mg/ml, n = 7
Source text: Investigated was the effect of phenobarbital in an endonasal administration on sexually mature white mice. Both the sedative and the soporific effect of the endonasal administration of phenobarbital without oxygen anion radicals were compared with the administration of the […]

[5] = tested on: patients with persistent or severe pain; test: Analgesic effect in patients with persistent or severe pain; type: in vivo, human
Source text: The enhancement of the therapeutic efficacy of the analgesic metamizol was investigated. A total of 5 volunteers participated in the observations. […] With all patients, the observations were made after six hours following the last administration of the pain therapy.

[6] = rats given haloperidol i/p (100 mg/kg), one-time endonasal, dopamine 0.125 mg/kg, L-arginine 10^-5 mole/l, H2O2 10^-6 mole/l
[7] = after administration of preparation, endonasal twice daily 20 μl per animal
[8] = before administration minus after administration (Table 4)
[9] = before administration of preparation

Compound: CCC(=O)OC1(c2ccccc2)CC(C)N(C)CC1C (stereo not drawn) [Promedol, trimeperidine]
- Lower dose of promedol giving prolonged and enhanced analgesic effect, endonasal form with oxygen anion radicals vs other administration methods ([1]; endonasal composition compared to other administration methods): 10-50 times
- Nociception (critical pressure WKD) ([1]; group II, 1.0 mg/kg i/p, 30 min after injection): 6.2 ± 1.9
- Nociception (critical pressure WKD) ([1]; group II, 1.0 mg/kg i/p, 90 min after injection): 5.4 ± 1.4
- Nociception (critical pressure WKD) ([1]; group II, 1.0 mg/kg i/p, 150 min after injection): 5.0 ± 1.2
- Nociception (critical pressure WKD) ([1]; group II, 1.0 mg/kg i/p, 210 min after injection): 4.8 ± 0.9
- Initial value of nociception (critical pressure WKD) ([1]; group II, 1.0 mg/kg i/p): 6.7 ± 0.9
- Nociception (critical pressure WKD) ([1]; group III, 2.0 mg/kg i/p, 30 min after injection): 10.1 ± 1.1*)
- Nociception (critical pressure WKD) ([1]; group III, 2.0 mg/kg i/p, 90 min after injection): 9.3 ± 1.0*)
- Nociception (critical pressure WKD) ([1]; group III, 2.0 mg/kg i/p, 150 min after injection): 8.0 ± 1.1
- Nociception (critical pressure WKD) ([1]; group III, 2.0 mg/kg i/p, 210 min after injection): 7.5 ± 0.9
- Initial value of nociception (critical pressure WKD) ([1]; group III, 2.0 mg/kg i/p): 7.8 ± 1.6
- Nociception (critical pressure WKD) ([1]; group IV, 5.0 mg/kg i/p, 30 min after injection): 11.0 ± 1.0**)
- Nociception (critical pressure WKD) ([1]; group IV, 5.0 mg/kg i/p, 90 min after injection): 9.8 ± 1.3**)
- Nociception (critical pressure WKD) ([1]; group IV, 5.0 mg/kg i/p, 150 min after injection): 8.3 ± 1.7*)
- Nociception (critical pressure WKD) ([1]; group IV, 5.0 mg/kg i/p, 210 min after injection): 6.7 ± 1.0
- Initial value of nociception (critical pressure WKD) ([1]; group IV, 5.0 mg/kg i/p): 6.4 ± 0.7
- Nociception (critical pressure WKD) ([1]; group V, 1.0 mg/kg i/p + O2- inhalation, 30 min): 8.1 ± 3.6*)
- Nociception (critical pressure WKD) ([1]; group V, 1.0 mg/kg i/p + O2- inhalation, 90 min): 8.1 ± 2.3**)
- Nociception (critical pressure WKD) ([1]; group V, 1.0 mg/kg i/p + O2- inhalation, 150 min): 9.6 ± 5.0**)
- Nociception (critical pressure WKD) ([1]; group V, 1.0 mg/kg i/p + O2- inhalation, 210 min): 5.8 ± 2.3
- Initial value of nociception (critical pressure WKD) ([1]; group V, 1.0 mg/kg i/p + O2- inhalation): 6.9 ± 1.6
- Nociception (critical pressure WKD) ([1]; group VI, 1.0 mg/kg i/p + separate endonasal H2O2-administration, 30 min): 8.4 ± 2.8*)
- Nociception (critical pressure WKD) ([1]; group VI, 1.0 mg/kg i/p + separate endonasal H2O2-administration, 90 min): 8.7 ± 2.0**)
- Nociception (critical pressure WKD) ([1]; group VI, 1.0 mg/kg i/p + separate endonasal H2O2-administration, 150 min): 8.6 ± 2.7**)
- Nociception (critical pressure WKD) ([1]; group VI, 1.0 mg/kg i/p + separate endonasal H2O2-administration, 210 min): 7.3 ± 2.2
- Initial value of nociception (critical pressure WKD) ([1]; group VI, 1.0 mg/kg i/p + separate endonasal H2O2-administration): 7.1 ± 1.8

Compound: NCCc1ccc(O)c(O)c1 [Dopamine, dopamine]
- Total spontaneous activity (Number of measurable movements) [2, 6]: 2 ± 1.7 ^##)

Compound: O=C(CCCN1CCC(O)(c2ccc(Cl)cc2)CC1)c1ccc(F)cc1 [Haloperidol]
- Total spontaneous activity (Number of measurable movements) ([2]; haloperidol i/p alone (100 mg/kg bodyweight), unharmed control 35 ± 8): 3 ± 3 ^##)

Compound: N[C@@H](CCC(=O)O)C(=O)O [glutamic acid]
- LP, latent period between approach to the food and presentation of the food [3, 7]: 36.3 ± 4.1 s
- Tfut., time for consuming the food [3, 7]: 491.2 ± 9.4 s
- Change in LP [3, 8]: 33.3 ± 13.1 s
- Change in Tfut. [3, 8]: -77.2 ± 26.6 s
- Change in Ubr. [3, 8]: 0.4 ± 0.6 s
- LP, latent period between approach to the food and presentation of the food [3, 9]: 69.9 ± 15.9 s
- Tfut., time for consuming the food [3, 9]: 414.0 ± 30.6 s

Compound: CCC1(c2ccccc2)C(=O)NC(=O)NC1=O [phenobarbital]
- Sleep duration [4]: 248.5 ± 22.2 min

Compound: Cc1c(N(C)CS(=O)(=O)O)c(=O)n(-c2ccccc2)n1C [metamizol]
- Analgesic efficacy in all patients ([5]; endonasally, dose of 10 mg, without addition of oxygen anion radicals): not effective
- Analgesic efficacy in all patients ([5]; per os, dose of 500 mg): not effective

Compound: OO [H2O2, hydrogen peroxide]
- Total spontaneous activity (Number of measurable movements) [2, 6]: 3 ± 1.9 ^##)
